Experimental findings from patent US10206898B2, “Compositions and methods for treating or preventing obesity in a subject in need thereof” (Amarin Pharmaceuticals Ireland Limited, priority 2013, dated 2019) are described below.

In this assay the test system is patients with fasting triglyceride levels ≥200 mg/dl and <500 mg/dl despite statin therapy. As to the kind of experiment: 12-week placebo-controlled, randomized, double-blind study: lipoprotein particle concentrations. It counts as in vivo, human. The procedure: A multi-center, placebo-controlled, randomized, double-blind, 12-week study was performed to evaluate the efficacy and safety of >96% E-EPA in patients with fasting triglyceride levels ≥200 mg/dl and <500 mg/dl despite statin therapy (the mean of two qualifying entry values needed to be ≥185 mg/dl and at least one of the values needed to be ≥200 mg/dl). The primary objective of the study was to determine the efficacy of >96% E-EPA 2 g daily and 4 g daily, compared to placebo, in lowering fasting TG levels in patients with high risk for cardiovascular disease and with fasting TG levels ≥200 mg/dl and <500 mg/dl, despite treatment to LDL-C goal on statin therapy. The population for this study was men and women >18 years of age with a body mass index ≤45 kg/m^2 with fasting TG levels greater than or equal to 200 mg/dl and less than 500 mg/dl and on a stable does of statin therapy (with or without ezetimibe). The statin was atorvostatin, rosuvastatin or simvastatin. The dose of statin must have been stable for ≥4 weeks prior to the LDL-C/TG baseline qualifying measurement for randomization. The statin dose was optimized such that the patients are at their LDL-C goal at the LDL-C/TG baseline qualifying measurements. The same statin at the same dose was continued until the study ended. Approximately 702 patients were randomized at approximately 80 centers in the U.S. The study was a 18- to 20-week, Phase 3, multi-center study consisting of 2 study periods: (1) A 6- to 8-week screening period that included a diet and lifestyle stabilization, a non-statin lipid-altering treatment washout, and an LDL-C and TG qualifying period and (2) A 12-week, double-blind, randomized, placebo-controlled treatment period. After confirmation of qualifying fasting LDL-C and TG values, eligible patients entered a 12-week, randomized, double-blind treatment period. At Visit 4 (Week 0), patients were randomly assigned to 1 of the following treatment groups: • >96% E-EPA 2 g daily, • >96% E-EPA 4 g daily, or • Placebo. Eligible patients were randomly assigned at Visit 4 (Week 0) to receive orally >96% E-EPA 2 g daily, >96% E-EPA 4 g daily, or placebo. >96% E-EPA was provided in 1 g liquid-filled, oblong, gelatin capsules. The matching placebo capsule was filled with light liquid paraffin and contained 0 g of >96% E-EPA. >96% E-EPA capsules were to be taken with food (i.e. with or at the end of a meal). […]

On to `CC/C=C\C/C=C\C/C=C\C/C=C\C/C=C\CCCC(=O)OCC` [Ethyl Eicosapentaenoate, ethyl eicosapentaenoate], for which, where the note is “4 g per day, stated as a reduction (P<0.0001)”, the “reduction of median concentrations of total HDL over baseline when adjusted for placebo” value came to 7.4%. In addition, the “reduction of median concentrations of total LDL over baseline when adjusted for placebo” value (4 g per day, stated as a reduction (P<0.01)) worked out at 7.7%. For the same compound, the “HDL % Change (placebo-adjusted, relative to baseline)” value (4 g/day, 12 weeks, statin-treated patients, median total HDL particle concentration) is recorded as −7.4%. The “LDL % Change (placebo-adjusted, relative to baseline)” value (4 g/day, 12 weeks, statin-treated patients, median total LDL particle concentration) is recorded as −7.7%.
